Reference: patent US20260125375A1 (Pfizer Inc., priority 2022, published 2026)
Read-outs that look alike come from different tables or passages of the source.

What was measured:
[1] = target: T1, C-CBL (Homo sapiens, UniProt P22681); assay: Jurkat HiBit-IL2 assay (CBL-B KO), reporter cell line expressing C-CBL only; type: cell-based; conditions: geometric mean, read-out: CBL-B KO EC50 (nM) GMean
T1 construct: endogenous in cells; host or cells: Jurkat HiBit-IL2 reporter cells, CBL-B knocked out by CRISPR
Source text: (§1) Jurkat HiBit-IL2 Assay (WT, c-CBL KO, CBL-B KO)
(§2) The purpose of the Jurkat HiBit-IL2 assay is to evaluate the effect of the inhibition of CBL-B and/or C-CBL on TCR/CD28 stimulated interleukin-2 (IL-2) secretion.
(§3) The expression of IL-2 can then be accurately measured by HiBit luciferase assay. Further, C-CBL or CBL-B was knocked out by CRISPR respectively in this Jurkat HiBit-IL2 reporter cell line to create reporter cell line expressing CBL-B only (c-CBL knockout (KO)) or C-CBL only (CBL-B KO).
(§4) All three reporter cell lines were maintained in RPMI-1640 media with GlutaMax, 10% fetal bovine serum, 100 units/ml of penicillin, and 100 μg/ml of streptomycin at 37° C., 5% CO2, at a cell density 1×10e5-2×10e6 viable cells/ml. Serial diluted compounds in DMSO (40 nl/well, final 0.1% DMSO in assay cell culture) were plated into 384-well white-wall clear-bottom cell culture plates. Reporter cells were pelleted and resuspended in fresh cell culture medium to 0.66×10e6 cells/ml and added to the assay plate at 30 μl/well (20,000 cells/well). The cells were incubated with compounds for 1 hour at 37° C., 5% CO2. 10 μl/well of anti-CD3 antibody (OKT3) and anti-CD28 antibody (CD28.2) prediluted in fresh cell culture medium at 4× final concentration (anti-CD3 mAb: 4 μg/ml; anti-CD28 mAb: 8 μg/ml) was added into the cells (final concentration of anti-CD3 mAb: 1 μg/ml; anti-CD28 mAb: 2 μg/ml). The cells were cultured for another 4 hours at 37° C., 5% CO2. The Nano-Glo HiBiT Lytic Reagent was prepared following the manufacturer's protocol. 20 ul/well of the Nano-Glo HiBiT Lytic Reagent was added into the reporter cell culture assay plate and incubated at room temperature (20-25° C.) for 15 minutes. The plates were read on a Perkin-Elmer EnVision plate reader with 0.1 second integration time. Data were normalized to “Fold of Effect” with the anti-CD3 and anti-CD28 antibodies only samples as the baseline activation level and EC50 was calculated. The EC50 (nM) values reported are the geometric means (GMean) of the number of tests conducted.

[2] = target: T2, CBL-B (Homo sapiens, UniProt Q13191); assay: Jurkat HiBit-IL2 assay (c-CBL KO), reporter cell line expressing CBL-B only; type: cell-based; conditions: geometric mean, read-out: C-CBL KO EC50 (nM) GMean
T2 construct: endogenous in cells; host or cells: Jurkat HiBit-IL2 reporter cells, C-CBL knocked out by CRISPR
Source text: as §1, §2, §3, §4

[3] = target: T3, CBL-B (residues 36-427) (Homo sapiens, UniProt Q13191); assay: Ligand Displacement Assay (LDA), HTRF competitive binding against BODIPY-labeled fluorescent tracer, CBL-B; conditions: geometric mean of the number of tests, read-out: CBL-B Ki (nM) GMean
T3 construct: Purified CBL-B (residues 36-427) and C-CBL (residues 46-435) proteins from baculovirus-infected insect cells; made in house; host or cells: baculovirus-infected insect cells
Outline: (§5)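 First, the insect-cell-expressed protein is biotinylated at its amino-terminal AviTag with BirA and coupled to SA-Tb. Next, the tracer KD is determined for each protein. Finally, compounds are titrated three-fold in duplicate […], at 2% DMSO, and Ki is reported as a geometric mean.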

[4] = target: T4, C-CBL (residues 46-435) (Homo sapiens, UniProt P22681); assay: Ligand Displacement Assay (LDA), HTRF competitive binding against BODIPY-labeled fluorescent tracer, C-CBL; conditions: geometric mean of the number of tests, read-out: C-CBL Ki (nM) GMean
T4 construct: Purified CBL-B (residues 36-427) and C-CBL (residues 46-435) proteins from baculovirus-infected insect cells; made in house; host or cells: baculovirus-infected insect cells
T4 sequence (P22681 46-435): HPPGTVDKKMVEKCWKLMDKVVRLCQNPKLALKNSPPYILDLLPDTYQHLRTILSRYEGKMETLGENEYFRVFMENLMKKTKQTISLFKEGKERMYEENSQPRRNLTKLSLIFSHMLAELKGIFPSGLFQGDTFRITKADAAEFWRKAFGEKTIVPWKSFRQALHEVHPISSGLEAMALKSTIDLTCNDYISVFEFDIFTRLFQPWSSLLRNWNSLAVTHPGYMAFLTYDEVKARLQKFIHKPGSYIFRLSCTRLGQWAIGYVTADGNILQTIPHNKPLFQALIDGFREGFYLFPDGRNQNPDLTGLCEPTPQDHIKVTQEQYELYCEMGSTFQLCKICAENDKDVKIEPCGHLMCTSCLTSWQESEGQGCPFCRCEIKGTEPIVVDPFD
Outline: as §5

[5] = CBL-B KO (expressing C-CBL only), Table 16b (further repetition)
[6] = C-CBL KO (expressing CBL-B only), Table 16b (further repetition)
[7] = CBL-B KO (C-CBL only), anti-CD3/anti-CD28 stimulation 4 hours, Table 16a
[8] = c-CBL KO (CBL-B only), anti-CD3/anti-CD28 stimulation 4 hours, Table 16a

C[C@@H](c1nc(C(F)(F)F)cc2c(-c3cccc([C@H](c4nncn4C)C4CCC4)c3)n[nH]c12)N1CC[C@H](O)C1 (single isomer, unassigned) [Example D70]
EC50 [1, 5]: 618 nM | EC50 [2, 6]: 163 nM | Ki [3]: 7.1 nM | Ki [4]: 48.4 nM

C[C@@H](N[C@H]1CCC[C@@H]1O)c1nc(C(F)(F)F)cc2c(-c3cccc([C@H](c4nncn4C)C4CCC4)c3)n[nH]c12 (single isomer, unassigned) [Example C46]
EC50 [1, 7]: 392 nM | EC50 [1, 5]: 330 nM | EC50 [2, 6]: 61 nM | EC50 [2, 8]: 36 nM | Ki [3]: 9.4 nM | Ki [4]: 67.8 nM

CC(NCCO)c1nc(C(F)(F)F)cc2c(-c3cccc([C@H](c4nncn4C)C4CCC4)c3)n[nH]c12 (single isomer, unassigned) [Example C42]
EC50 [1, 7]: 316 nM | EC50 [1, 5]: 635 nM | EC50 [2, 6]: 94 nM | EC50 [2, 8]: 29 nM | Ki [3]: 2.5 nM | Ki [4]: 28.2 nM

C[C@H](NC[C@@H](C)O)c1nc(C(F)(F)F)cc2c(-c3cccc([C@H](c4nncn4C)C4CCC4)c3)n[nH]c12 (single isomer, unassigned) [Example D25]
EC50 [1, 7]: 174 nM | EC50 [1, 5]: 359 nM | EC50 [2, 6]: 101 nM | EC50 [2, 8]: 20 nM | Ki [3]: 6.4 nM | Ki [4]: 51.1 nM

C[C@H](N[C@@H]1COC[C@H]1O)c1nc(C(F)(F)F)cc2c(-c3cccc([C@H](c4nncn4C)C4CCC4)c3)n[nH]c12 (single isomer, unassigned) [Example D59]
EC50 [1, 5]: 1260 nM | EC50 [2, 6]: 267 nM | Ki [3]: 2.6 nM | Ki [4]: 26.6 nM

CC(NCCO)c1nc(C(F)(F)F)cc2c(-c3cccc([C@H](c4nncn4C)C4CCC4)c3)n[nH]c12 (single isomer, unassigned) [Example C41]
EC50 [1, 7]: 327 nM | EC50 [1, 5]: 877 nM | EC50 [2, 6]: 154 nM | EC50 [2, 8]: 42 nM | Ki [3]: 3.2 nM | Ki [4]: 30.1 nM

C[C@@H](c1nc(C(F)(F)F)cc2c(-c3cccc([C@H](c4nncn4C)C4CCC4)c3)n[nH]c12)N1CC[C@@H](O)C1 (single isomer, unassigned) [Example D68]
EC50 [1, 5]: 1710 nM | EC50 [2, 6]: 293 nM | Ki [3]: 15.2 nM | Ki [4]: 134 nM

CC[C@H](c1cccc(-c2n[nH]c3c([C@@H](C)NC[C@H](C)O)nc(C(F)(F)F)cc23)c1)c1nncn1C (single isomer, unassigned) [Example D77]
EC50 [1, 5]: 93 nM | EC50 [2, 6]: 33 nM | Ki [3]: 0.8 nM | Ki [4]: 4.5 nM

CC(NCCO)c1nc(C(F)(F)F)cc2c(-c3cccc([C@H](c4nncn4C)C4CCCCC4)c3)n[nH]c12 (single isomer, unassigned) [Example C39]
EC50 [1, 7]: 496 nM | EC50 [1, 5]: 615 nM | EC50 [2, 6]: 108 nM | EC50 [2, 8]: 35 nM | Ki [3]: 7.4 nM | Ki [4]: 73.2 nM

C[C@H](c1nc(C(F)(F)F)cc2c(-c3cccc([C@H](c4nncn4C)C4CCC4)c3)n[nH]c12)N1CC[C@@H](O)C1 (single isomer, unassigned) [Example D69]
EC50 [1, 5]: 490 nM | EC50 [2, 6]: 154 nM | Ki [3]: 9.3 nM | Ki [4]: 54.3 nM
